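Method: 48-hour compound exposure of cells in 96-well plates, five concentrations, linear interpolation of endpoints. GI50 marks 50% less growth. Definition used: TGI = concentration required for complete inhibition of growth.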
Tests used:
Assay in all cases: NCI anticancer screen, dose series, 48 h
786-0 renal = system: 786-0 renal
A498 renal = system: A498 renal
A549 NSCLC = system: A549 NSCLC
ACHN renal = system: ACHN renal
BT-549 breast = system: BT-549 breast
CAKI-1 renal = system: CAKI-1 renal
CCRF-CEM leukemia = system: CCRF-CEM leukemia
COLO 205 colon = system: COLO 205 colon
DU-145 prostate = system: DU-145 prostate
EKVX NSCLC = system: EKVX NSCLC
HCC-2998 colon = system: HCC-2998 colon
HCT-116 colon = system: HCT-116 colon
HCT-15 colon = system: HCT-15 colon
HL-60(TB) leukemia = system: HL-60(TB) leukemia
HOP-62 NSCLC = system: HOP-62 NSCLC
HOP-92 NSCLC = system: HOP-92 NSCLC
HS 578T breast = system: HS 578T breast
HT29 colon = system: HT29 colon
IGROV1 ovarian = system: IGROV1 ovarian
K-562 leukemia = system: K-562 leukemia
KM12 colon = system: KM12 colon
LOX IMVI melanoma = system: LOX IMVI melanoma
M14 melanoma = system: M14 melanoma
MALME-3M melanoma = system: MALME-3M melanoma
MCF7 breast = system: MCF7 breast
MDA-MB-231 breast = system: MDA-MB-231 breast
MDA-MB-435 = system: MDA-MB-435
MOLT-4 leukemia = system: MOLT-4 leukemia
NCI-H226 lung = system: NCI-H226 lung
NCI-H23 lung = system: NCI-H23 lung
NCI-H460 lung = system: NCI-H460 lung
NCI-H522 lung = system: NCI-H522 lung
NCI/ADR-RES ovarian = system: NCI/ADR-RES ovarian
OVCAR-3 ovarian = system: OVCAR-3 ovarian
OVCAR-4 ovarian = system: OVCAR-4 ovarian
OVCAR-5 ovarian = system: OVCAR-5 ovarian
OVCAR-8 ovarian = system: OVCAR-8 ovarian
PC-3 prostate = system: PC-3 prostate
RPMI-8226 leukemia = system: RPMI-8226 leukemia
RXF 393 renal = system: RXF 393 renal
SF-268 CNS = system: SF-268 CNS
SF-295 CNS = system: SF-295 CNS
SF-539 CNS = system: SF-539 CNS
SK-MEL-2 melanoma = system: SK-MEL-2 melanoma
SK-MEL-28 melanoma = system: SK-MEL-28 melanoma
SK-MEL-5 melanoma = system: SK-MEL-5 melanoma
SK-OV-3 ovarian = system: SK-OV-3 ovarian
SN12C renal = system: SN12C renal
SNB-19 CNS = system: SNB-19 CNS
SR leukemia = system: SR leukemia
SW-620 colon = system: SW-620 colon
T-47D breast = system: T-47D breast
TK-10 renal = system: TK-10 renal
U251 CNS = system: U251 CNS
UACC-257 melanoma = system: UACC-257 melanoma
UACC-62 melanoma = system: UACC-62 melanoma
UO-31 renal = system: UO-31 renal
SNB-75 CNS = system: SNB-75 CNS

## CC(=O)OC1CN2CCC1CC2 (centres undefined)
786-0 renal
  TGI: > 100 µM
A498 renal
  TGI: > 100 µM
A549 NSCLC
  TGI: > 100 µM
ACHN renal
  TGI: > 100 µM
BT-549 breast
  TGI: > 100 µM
CAKI-1 renal
  TGI: > 100 µM
CCRF-CEM leukemia
  TGI: > 100 µM
COLO 205 colon
  TGI: > 100 µM
DU-145 prostate
  TGI: > 100 µM
EKVX NSCLC
  TGI: > 100 µM
HCC-2998 colon
  TGI: > 100 µM
HCT-116 colon
  TGI: > 100 µM
HCT-15 colon
  TGI: > 100 µM
HL-60(TB) leukemia
  TGI: > 100 µM
HOP-62 NSCLC
  TGI: > 100 µM
HOP-92 NSCLC
  TGI: > 100 µM
HS 578T breast
  TGI: > 100 µM
HT29 colon
  TGI: > 100 µM
IGROV1 ovarian
  TGI: > 100 µM
K-562 leukemia
  TGI: > 100 µM
KM12 colon
  TGI: > 100 µM
LOX IMVI melanoma
  TGI: > 100 µM
M14 melanoma
  TGI: > 100 µM
MALME-3M melanoma
  TGI: > 100 µM
MCF7 breast
  TGI: > 100 µM
MDA-MB-231 breast
  TGI: > 100 µM
MDA-MB-435
  TGI: > 100 µM
MOLT-4 leukemia
  TGI: > 100 µM
NCI-H226 lung
  TGI: > 100 µM
NCI-H23 lung
  TGI: > 100 µM
NCI-H460 lung
  TGI: > 100 µM
NCI-H522 lung
  TGI: > 100 µM
NCI/ADR-RES ovarian
  TGI: > 100 µM
OVCAR-3 ovarian
  TGI: > 100 µM
OVCAR-4 ovarian
  TGI: > 100 µM
OVCAR-5 ovarian
  TGI: > 100 µM
OVCAR-8 ovarian
  TGI: > 100 µM
PC-3 prostate
  TGI: > 100 µM
RPMI-8226 leukemia
  TGI: > 100 µM
RXF 393 renal
  TGI: > 100 µM
SF-268 CNS
  TGI: > 100 µM
SF-295 CNS
  TGI: > 100 µM
SF-539 CNS
  TGI: > 100 µM
SK-MEL-2 melanoma
  TGI: > 100 µM
SK-MEL-28 melanoma
  TGI: > 100 µM
SK-MEL-5 melanoma
  TGI: > 100 µM
SK-OV-3 ovarian
  TGI: > 100 µM
SN12C renal
  TGI: > 100 µM
SNB-19 CNS
  TGI: > 100 µM
SR leukemia
  TGI: > 100 µM
SW-620 colon
  TGI: > 100 µM
T-47D breast
  TGI: > 100 µM
TK-10 renal
  TGI: > 100 µM
U251 CNS
  TGI: > 100 µM
UACC-257 melanoma
  TGI: > 100 µM
UACC-62 melanoma
  TGI: > 100 µM
UO-31 renal
  TGI: > 100 µM

## OCCCCC#Cc1ccccc1C#Cc1ccccn1
786-0 renal
  GI50: 38.3 µM
  TGI: > 100 µM
A498 renal
  GI50: 8.99 µM
  TGI: 49.7 µM
A549 NSCLC
  GI50: 33.6 µM
  TGI: > 100 µM
ACHN renal
  GI50: 31.8 µM
  TGI: > 100 µM
BT-549 breast
  GI50: 15.8 µM
  TGI: 47.4 µM
CAKI-1 renal
  GI50: 28.6 µM
  TGI: > 100 µM
CCRF-CEM leukemia
  GI50: 31.4 µM
  TGI: > 100 µM
COLO 205 colon
  GI50: 31.1 µM
  TGI: > 100 µM
DU-145 prostate
  GI50: 9.78 µM
  TGI: 74.6 µM
EKVX NSCLC
  GI50: 27.7 µM
  TGI: 67 µM
HCC-2998 colon
  GI50: 26.4 µM
  TGI: 72.9 µM
HCT-116 colon
  GI50: 30.8 µM
  TGI: > 100 µM
HCT-15 colon
  GI50: 29.8 µM
  TGI: > 100 µM
HOP-62 NSCLC
  GI50: 29.4 µM
  TGI: > 100 µM
HOP-92 NSCLC
  GI50: 26.6 µM
  TGI: 94.6 µM
HS 578T breast
  GI50: 25.6 µM
  TGI: 88.3 µM
HT29 colon
  GI50: 26.1 µM
  TGI: > 100 µM
IGROV1 ovarian
  GI50: 27.2 µM
  TGI: > 100 µM
K-562 leukemia
  GI50: 29 µM
  TGI: > 100 µM
KM12 colon
  GI50: 29.7 µM
  TGI: > 100 µM
LOX IMVI melanoma
  GI50: 27.7 µM
  TGI: > 100 µM
MALME-3M melanoma
  GI50: 27.1 µM
  TGI: > 100 µM
MCF7 breast
  GI50: 37.8 µM
  TGI: > 100 µM
MDA-MB-231 breast
  GI50: 21 µM
  TGI: 64.9 µM
MDA-MB-435
  GI50: 25.1 µM
  TGI: 79.4 µM
MOLT-4 leukemia
  GI50: 21.4 µM
  TGI: > 100 µM
NCI-H226 lung
  GI50: 31.3 µM
  TGI: > 100 µM
NCI-H23 lung
  GI50: 25.2 µM
  TGI: > 100 µM
NCI-H460 lung
  GI50: 24.8 µM
  TGI: 76.4 µM
NCI-H522 lung
  GI50: 22.2 µM
  TGI: 56 µM
NCI/ADR-RES ovarian
  GI50: 27.3 µM
  TGI: 77.4 µM
OVCAR-3 ovarian
  GI50: 26.1 µM
  TGI: 77.3 µM
OVCAR-4 ovarian
  GI50: 30.3 µM
  TGI: > 100 µM
OVCAR-5 ovarian
  GI50: > 100 µM
  TGI: > 100 µM
OVCAR-8 ovarian
  GI50: 32.4 µM
  TGI: > 100 µM
PC-3 prostate
  GI50: 24.6 µM
  TGI: 73.9 µM
RPMI-8226 leukemia
  GI50: 16.4 µM
  TGI: 37.4 µM
RXF 393 renal
  GI50: 25 µM
  TGI: 62.3 µM
SF-268 CNS
  GI50: 29.8 µM
  TGI: > 100 µM
SF-295 CNS
  GI50: 21.8 µM
  TGI: 65.2 µM
SF-539 CNS
  GI50: 17.8 µM
  TGI: 42.7 µM
SK-MEL-2 melanoma
  GI50: 41.6 µM
  TGI: > 100 µM
SK-MEL-28 melanoma
  GI50: 31 µM
  TGI: > 100 µM
SK-MEL-5 melanoma
  GI50: 19.1 µM
  TGI: 41.4 µM
SK-OV-3 ovarian
  GI50: > 100 µM
  TGI: > 100 µM
SN12C renal
  GI50: 32.1 µM
  TGI: > 100 µM
SNB-19 CNS
  GI50: 42.1 µM
  TGI: > 100 µM
SNB-75 CNS
  GI50: 14.9 µM
  TGI: 51.5 µM
SR leukemia
  GI50: 25.5 µM
  TGI: 96.2 µM
SW-620 colon
  GI50: 45.7 µM
  TGI: > 100 µM
T-47D breast
  GI50: 15.9 µM
  TGI: 80.6 µM
TK-10 renal
  GI50: 61 µM
  TGI: > 100 µM
U251 CNS
  GI50: 31.2 µM
  TGI: > 100 µM
UACC-257 melanoma
  GI50: 28.8 µM
  TGI: 87.2 µM
UACC-62 melanoma
  GI50: 23.1 µM
  TGI: > 100 µM
UO-31 renal
  GI50: 32.3 µM
  TGI: > 100 µM
